From EP4778924A1 (Huons Co., Ltd., priority 2023, dated 2025)
Where a name gives a salt, the structure may show the parent alone.

What follows are compounds tested against T1, Proton Pump (H^+,K^+-ATPase) (Sus scrofa, UniProt P19156) (assay: Inhibitory activity on proton pump (H+,K+-ATPase) activity, porcine gastric vesicles, malachite green readout). Details: porcine gastric vesicles, pH 6.5, 8 mM KCl, 0.2 mM ATP.
T1 construct: gastric vesicles were isolated from porcine stomachs; from tissue; host or cells: porcine stomach (gastric vesicles)
Assay type: biochemical
How it was run: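 Porcine gastric vesicles (100 ng) preincubated 30 min at 37°C with […] valinomycin and compound (0.1% DMSO final) in 50 mM Tris-HEPES, 5 mM MgCl2, 8 mM KCl, pH 6.5, then 0.2 mM ATP for 20 min at 37°C. Released phosphate measured by malachite green at 620 nm; IC50 via nonlinear regression of % inhibition.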

T1 sequence (P19156 2-1034 limits assumed): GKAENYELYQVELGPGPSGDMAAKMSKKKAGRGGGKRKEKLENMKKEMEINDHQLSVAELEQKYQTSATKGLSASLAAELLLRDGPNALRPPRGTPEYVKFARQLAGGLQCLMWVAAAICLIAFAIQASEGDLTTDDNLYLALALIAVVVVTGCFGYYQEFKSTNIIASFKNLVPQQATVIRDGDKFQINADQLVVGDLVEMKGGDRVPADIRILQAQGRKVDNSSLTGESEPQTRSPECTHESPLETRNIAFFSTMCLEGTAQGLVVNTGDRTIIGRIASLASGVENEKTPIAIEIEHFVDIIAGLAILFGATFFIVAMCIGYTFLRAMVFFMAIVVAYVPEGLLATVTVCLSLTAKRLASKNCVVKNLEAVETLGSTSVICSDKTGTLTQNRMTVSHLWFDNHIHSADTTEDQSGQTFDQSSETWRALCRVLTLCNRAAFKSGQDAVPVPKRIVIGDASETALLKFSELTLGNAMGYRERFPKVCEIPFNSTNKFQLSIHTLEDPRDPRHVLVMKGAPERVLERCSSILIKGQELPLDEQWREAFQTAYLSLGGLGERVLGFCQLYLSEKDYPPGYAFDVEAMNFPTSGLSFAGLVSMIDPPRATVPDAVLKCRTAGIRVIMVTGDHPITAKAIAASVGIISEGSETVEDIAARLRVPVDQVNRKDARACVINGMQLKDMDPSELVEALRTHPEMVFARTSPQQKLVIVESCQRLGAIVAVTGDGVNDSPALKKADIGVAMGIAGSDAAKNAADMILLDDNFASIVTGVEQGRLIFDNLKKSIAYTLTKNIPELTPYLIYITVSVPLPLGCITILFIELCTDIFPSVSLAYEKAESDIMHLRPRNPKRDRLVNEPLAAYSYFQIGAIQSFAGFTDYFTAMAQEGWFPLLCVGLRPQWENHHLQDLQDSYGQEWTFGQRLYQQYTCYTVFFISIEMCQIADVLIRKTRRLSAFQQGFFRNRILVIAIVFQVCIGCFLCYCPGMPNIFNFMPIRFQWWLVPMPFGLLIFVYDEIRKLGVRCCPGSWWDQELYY
T1 sequence (P18434 whole entry partner): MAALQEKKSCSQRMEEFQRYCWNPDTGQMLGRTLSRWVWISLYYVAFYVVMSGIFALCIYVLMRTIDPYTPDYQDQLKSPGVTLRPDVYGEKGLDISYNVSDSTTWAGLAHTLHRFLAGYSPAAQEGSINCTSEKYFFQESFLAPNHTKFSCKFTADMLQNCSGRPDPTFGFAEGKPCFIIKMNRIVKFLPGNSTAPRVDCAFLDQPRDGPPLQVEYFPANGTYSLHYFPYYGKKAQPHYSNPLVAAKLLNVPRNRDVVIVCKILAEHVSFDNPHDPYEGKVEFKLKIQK

IC50 [nM] | Compound
< 50 | Cc1cccc(C)c1CNc1cc(NC(=O)NCCO)cn2c(C)c(C)nc12 [Example 88, 1-(8-((2,6-dimethylbenzyl)amino)-2,3-dimethylimidazo[1,2-a]pyridin-6-yl)-3-(2-hydroxyethyl)urea citrate]
50 to 100 | Cc1cccc(C)c1CNc1cc(NC(=O)[C@@H]2CCNC2)cn2c(C)c(C)nc12 [Example 89, (R)-N-(8-((2,6-dimethylbenzyl)amino)-2,3-dimethylimidazo[1,2-a]pyridin-6-yl)pyrrolidine-3-carboxamide hydrochloride]
50 to 100 | Cc1cccc(C)c1CNc1cc(NC(=O)[C@H]2CCCCN2)cn2c(C)c(C)nc12 [Example 90, (R)-N-(8-((2,6-dimethylbenzyl)amino)-2,3-dimethylimidazo[1,2-a]pyridin-6-yl)piperidine-2-carboxamide hydrochloride]
50 to 100 | Cc1cccc(C)c1CNc1cc(NC(=O)C[C@H]2CCCN2)cn2c(C)c(C)nc12 [Example 91, (R)-N-(8-((2,6-dimethylbenzyl)amino)-2,3-dimethylimidazo[1,2-a]pyridin-6-yl)-2-(pyrrolidin-2-yl)acetamide hydrochloride]
> 500 | Cc1cccc(C)c1CNc1cc(NC(C)C)cn2c(C)c(C)nc12 [Example 92, N^8-(2,6-dimethylbenzyl)-N^6-isopropyl-2,3-dimethylimidazo [1,2-a] pyridine-6,8-diamine]
< 50 | Cc1cccc(C)c1CNc1cc(NC(=O)C[C@@H]2CCCN2)cn2c(C)c(C)nc12 [Example 93, (S)-N-(8-((2,6-dimethylbenzyl)amino)-2,3-dimethylimidazo[1,2-a]pyridin-6-yl)-2-(pyrrolidin-2-yl)acetamide hydrochloride]
< 50 | Cc1cccc(C)c1CNc1cc(NC(=O)[C@@H]2CNCCN2)cn2c(C)c(C)nc12 [Example 94, (S)-N-(8-((2,6-dimethylbenzyl)amino)-2,3-dimethylimidazo[1,2-a]pyridin-6-yl)piperazine-2-carboxamide hydrochloride]
< 50 | Cc1cccc(C)c1CNc1cc(NC(=O)CNC(=O)CO)cn2c(C)c(C)nc12 [Example 95, N-(8-((2,6-dimethylbenzyl)amino)-2,3-dimethylimidazo[1,2-a]pyridin-6-yl)-2-(2-hydroxyacetamido)acetamide]
100 to 500 | Cc1cccc(C)c1CNc1cc(NC(=O)[C@H](C)O)cn2c(C)c(C)nc12 [Example 96, (S)-N-(8-((2,6-dimethylbenzyl)amino)-2,3-dimethylimidazo[1,2-a]pyridin-6-yl)-2-hydroxypropanamide citrate]
50 to 100 | Cc1cccc(C)c1CNc1cc(NC(=O)[C@@H](C)O)cn2c(C)c(C)nc12 [Example 97, (R)-N-(8-((2,6-dimethylbenzyl)amino)-2,3-dimethylimidazo[1,2-a]pyridin-6-yl)-2-hydroxypropanamide citrate]
50 to 100 | CNCC(=O)Nc1cc(NCc2c(C)cccc2C)c2nc(C)c(C)n2c1 [Example 98, N-(8-((2,6-dimethylbenzyl)amino)-2,3-dimethylimidazo[1,2-a]pyridin-6-yl)-2-(methylamino)acetamide hydrochloride]
50 to 100 | Cc1cccc(C)c1CNc1cc(NC(=O)CCN)cn2c(C)c(C)nc12 [Example 99, 3-amino-N-(8-((2,6-dimethylbenzyl)amino)-2,3-dimethylimidazo[1,2-a]pyridin-6-yl)propanamide hydrochloride]
100 to 500 | Cc1cccc(C)c1CNc1cc(NC(=O)N2CCNCC2)cn2c(C)c(C)nc12 [Example 103, N-(8-((2,6-dimethylbenzyl)amino)-2,3-dimethylimidazo[1,2-a]pyridin-6-yl)piperazine-1-carboxamide hydrochloride]
100 to 500 | Cc1cccc(C)c1CNc1cc(NC(=O)c2ccccc2)cn2c(C)c(C)nc12 [Example 104, N-(8-((2,6-dimethylbenzyl)amino)-2,3-dimethylimidazo[1,2-a]pyridin-6-yl)benzamide citrate]
100 to 500 | Cc1cccc(C)c1CNc1cc(NC(=O)[C@H]2CCNC2)cn2c(C)c(C)nc12 [Example 105, (S)-N-(8-((2,6-dimethylbenzyl)amino)-2,3-dimethylimidazo[1,2-a]pyridin-6-yl)pyrrolidine-3-carboxamide hydrochloride]
100 to 500 | Cc1cccc(C)c1CNc1cc(NC(=O)[C@@H]2CCCCN2)cn2c(C)c(C)nc12 [Example 106, (S)-N-(8-((2,6-dimethylbenzyl)amino)-2,3-dimethylimidazo[1,2-a]pyridin-6-yl)piperidine-2-carboxamide hydrochloride]

IC50 [nM] | Compound
> 500 | CC(=O)Oc1ccc(/C=C/C(=O)Nc2cc(NCc3c(C)cccc3C)c3nc(C)c(C)n3c2)cc1 [Example 107, (E)-4-(3-((8-((2,6-dimethylbenzyl)amino)-2,3-dimethylimidazo[1,2-a]pyridin-6-yl)amino)-3-oxoprop-1-en-1-yl)phenyl acetate]
> 500 | COc1cc(/C=C/C(=O)Nc2cc(NCc3c(C)cccc3C)c3nc(C)c(C)n3c2)ccc1OC(C)=O [Example 108, (E)-4-(3-((8-((2,6-dimethylbenzyl)amino)-2,3-dimethylimidazo[1,2-a]pyridin-6-yl)amino)-3-oxoprop-1-en-1-yl)-2-methoxyphenyl acetate]
100 to 500 | Cc1cccc(C)c1CNc1cc(NC(=O)[C@H]2CCN(C(=O)CO)C2)cn2c(C)c(C)nc12 [Example 110, (S)-N-(8-((2,6-dimethylbenzyl)amino)-2,3-dimethylimidazo[1,2-a]pyridin-6-yl)-1-(2-hydroxyacetyl)pyrrolidine-3-carboxamide citrate]
100 to 500 | CC(=O)O[C@H](C)C(=O)Nc1cc(NCc2c(C)cc(F)cc2C)c2nc(C)c(C)n2c1 [Example 111, (R)-1-((8-((4-fluoro-2,6-dimethylbenzyl)amino)-2,3-dimethylimidazo[1,2-a]pyridin-6-yl)amino)-1-oxopropan-2-yl acetate]
> 500 | CC(=O)O[C@@H](C)C(=O)Nc1cc(NCc2c(C)cc(F)cc2C)c2nc(C)c(C)n2c1 [Example 112, (S)-1-((8-((4-fluoro-2,6-dimethylbenzyl)amino)-2,3-dimethylimidazo[1,2-a]pyridin-6-yl)amino)-1-oxopropan-2-yl acetate]
100 to 500 | CC(=O)OC1(C(=O)Nc2cc(NCc3c(C)cc(F)cc3C)c3nc(C)c(C)n3c2)CC1 [Example 113, 1-((8-((4-fluoro-2,6-dimethylbenzyl)amino)-2,3-dimethylimidazo[1,2-a]pyridin-6-yl)carbamoyl)cyclopropyl acetate]
100 to 500 | Cc1cc(F)cc(C)c1CNc1cc(NC(=O)[C@H](C)O)cn2c(C)c(C)nc12 [Example 114, (S)-N-(8-((4-fluoro-2,6-dimethylbenzyl)amino)-2,3-dimethylimidazo[1,2-a]pyridin-6-yl)-2-hydroxypropanamide]
< 50 | Cc1cc(F)cc(C)c1CNc1cc(NC(=O)C2(O)CC2)cn2c(C)c(C)nc12 [Example 115, N-(8-((4-fluoro-2,6-dimethylbenzyl)amino)-2,3-dimethylimidazo[1,2-a]pyridin-6-yl)-1-hydroxycyclopropane-1-carboxamide]
50 to 100 | Cc1cc(F)cc(C)c1CNc1cc(N2C(=O)CN(C)C2=O)cn2c(C)c(C)nc12 [Example 116, 3-(8-((4-fluoro-2,6-dimethylbenzyl)amino)-2,3-dimethylimidazolidine[1,2-a]pyridin-6-yl)-1-methylimidazolidine-2,4-dione]
< 50 | Cc1cc(F)cc(C)c1CNc1cc(NC(=O)[C@@H](C)O)cn2c(C)c(C)nc12 [Example 117, (R)-N-(8-((4-fluoro-2,6-dimethylbenzyl)amino)-2,3-dimethylimidazo[1,2-a]pyridin-6-yl)-2-hydroxypropanamide]
100 to 500 | Cc1cccc(C)c1CNc1cc(NC(=O)[C@H]2CCCNC2)cn2c(C)c(C)nc12 [Example 118, (S)-N-(8-((2,6-dimethylbenzyl)amino)-2,3-dimethylimidazo[1,2-a]pyridin-6-yl)piperidine-3-carboxamide hydrochloride]
50 to 100 | Cc1cccc(C)c1CNc1cc(NC(=O)CCNC(=O)CO)cn2c(C)c(C)nc12 [Example 119, N-(8-((2,6-dimethylbenzyl)amino)-2,3-dimethylimidazo[1,2-a]pyridin-6-yl)-3-(2-hydroxyacetamido)propanamide]
100 to 500 | Cc1cccc(C)c1CNc1cc(NC(=O)[C@H]2CCCN(C(=O)CO)C2)cn2c(C)c(C)nc12 [Example 120, (S)-N-(8-((2,6-dimethylbenzyl)amino)-2,3-dimethylimidazo[1,2-a]pyridin-6-yl)-1-(2-hydroxyacetyl)piperidine-3-carboxamide]
50 to 100 | Cc1cccc(C)c1CNc1cc(N)cn2c(C)c(C)nc12 [Preliminary Example 1, N^8-(2,6-dimethylbenzyl)-2,3-dimethylimidazo[1,2-a]pyridine-6,8-diamine]
50 to 100 | Cc1cc(F)cc(C)c1CNc1cc(N)cn2c(C)c(C)nc12 [Preliminary Example 2, N^8-(4-fluoro-2,6-dimethylbenzyl)-2,3-dimethylimidazo[1,2-a]pyridine-6,8-diamine hydrochloride]
> 500 | Cc1nc2c(O[C@H]3CCOc4cc(F)cc(F)c43)cc(C(=O)N(C)C)cc2[nH]1 [Tegoprazan, reference compound]

Compound | IC50 [nM]
Cc1cccc(C)c1CNc1cc(NC(=O)[C@@H]2CN2)cn2c(C)c(C)nc12 [Example 109, (S)-N-(8-((2,6-dimethylbenzyl)amino)-2,3-dimethylimidazo[1,2-a]pyridin-6-yl)aziridine-2-carboxamide hydrochloride] | 100 to 500
tert-butyl (2-(3-(8-((2,6-dimethylbenzyl)amino)-2,3-dimethylimidazo[1,2-a]pyridin-6-yl)ureido)ethyl)carbamate hydrochloride [Example 42] | 100 to 500

Same assay, conditions: result in words

inhibitory activity against proton pump activity | Compound
excellent inhibitory properties | Cc1cc(F)cc(C)c1CNc1cc(NC(=O)C2(O)CC2)cn2c(C)c(C)nc12 [Example 115, N-(8-((4-fluoro-2,6-dimethylbenzyl)amino)-2,3-dimethylimidazo[1,2-a]pyridin-6-yl)-1-hydroxycyclopropane-1-carboxamide]
excellent inhibitory properties | Cc1cc(F)cc(C)c1CNc1cc(NC(=O)[C@@H](C)O)cn2c(C)c(C)nc12 [Example 117, (R)-N-(8-((4-fluoro-2,6-dimethylbenzyl)amino)-2,3-dimethylimidazo[1,2-a]pyridin-6-yl)-2-hydroxypropanamide]
